Data published in ChEMBL document CHEMBL4118060, “A unique mid-sequence linker used to multimerize the lipid-phosphatidylserine (PS) binding peptide-peptoid hybrid PPS1” (Eur J Med Chem, 2017).
Calls of active or inactive are those of the source. The calls are words filed in the database; no cut-off is given here. Bridge positions count the residues as written; N and C are the ends. Square brackets hold non-standard residues; d marks the D form. Side chains are listed from the residue outwards. Peptide text beside a SMILES is read from it. I, II: the chains in the order shown. ξ: configuration not given here. Gly(N-piperonyl) = O=C(O)CNCc1ccc2c(c1)OCO2; N(4-MeOBn)Gly = COc1ccc(CNCC(=O)O)cc1; Nrpe = C[C@@H](NCC(=O)O)c1ccccc1; NAllylGly = C=CCNCC(=O)O; AEEA = NCCOCCOCC(=O)O; Nlys = NCCCCNCC(=O)O; ξK = NCCCCC(N)C(=O)O; ξM = CSCCC(N)C(=O)O; Nme = COCCNCC(=O)O; βAla = NCCC(=O)O

test system: HCC4017; test: Cytotoxicity against human HCC4017 cells assessed as decrease in cell viability at 0.001 to 50 uM after 24 hrs by calcein AM dye-based fluorescence assay; format: functional

With COc1ccc(CN(CC(=O)NC(CCCCNC(=O)C(CCCCNC(=O)C(CCCCN)NC(=O)C(CCCCN)NC(=O)C(CCSC)NC(=O)CN)NC(=O)CN(Cc2ccc(OC)cc2)C(=O)CN(C(=O)CN(Cc2ccc3c(c2)OCO3)C(=O)CN[C@H](C)c2ccccc2)[C@H](C)c2ccccc2)C(=O)NCCCCC(NC(=O)CN(Cc2ccc(OC)cc2)C(=O)CN(C(=O)CN(Cc2ccc3c(c2)OCO3)C(=O)CN[C@H](C)c2ccccc2)[C@H](C)c2ccccc2)C(=O)NC(CCCCN)C(=O)NC(CCCCN)C(=O)NC(CCSC)C(N)=O)C(=O)CN(C(=O)CN(Cc2ccc3c(c2)OCO3)C(=O)CN[C@H](C)c2ccccc2)[C@H](C)c2ccccc2)cc1 (some centres undefined) (I: H-[Nrpe][Gly(N-piperonyl)][Nrpe][N(4-MeOBn)Gly][ξK][ξK][ξK][ξM]-NH2 / II: H-[Nrpe][Gly(N-piperonyl)][Nrpe][N(4-MeOBn)Gly][ξK]([ξK-ξK-ξM-Gly]) / III: H-[Nrpe][Gly(N-piperonyl)][Nrpe][N(4-MeOBn)Gly][ξK]; amide I:5-III:C, II:C-III:5) as the compound, how does the Activity read?
The Activity was “Active”.

test system: HCC4017; test: Cytotoxicity against human HCC4017 cells assessed as decrease in cell viability at 0.001 to 50 uM after 24 hrs by MTS assay; format: functional, cell-based

COc1ccc(CN(CC(=O)NC(CCCCNC(=O)C(CCCCN)NC(=O)C(CCCCN)NC(=O)CN)C(=O)NC(CCCCN)C(=O)NC(CCCCN)C(N)=O)C(=O)CN(C(=O)CN(Cc2ccc3c(c2)OCO3)C(=O)CN[C@H](C)c2ccccc2)[C@H](C)c2ccccc2)cc1 (some centres undefined) (H-[Nrpe][Gly(N-piperonyl)][Nrpe][N(4-MeOBn)Gly][ξK]([ξK-ξK-Gly])[ξK][ξK]-NH2) was tested. Which Activity did it give?
The Activity was “inactive”.

COc1ccc(CN(CC(=O)N(CCCCN)CC(=O)NC(CCCCN)C(=O)NC(CCCCN)C(=O)NC(CCSC)C(N)=O)C(=O)CN(C(=O)CN(Cc2ccc3c(c2)OCO3)C(=O)CN[C@H](C)c2ccccc2)[C@H](C)c2ccccc2)cc1 (some centres undefined) (H-[Nrpe][Gly(N-piperonyl)][Nrpe][N(4-MeOBn)Gly][Nlys][ξK][ξK][ξM]-NH2) was tested. Which Activity did it give?
Its Activity is “inactive”.

C=CCNCC(=O)N(CCOC)CC(=O)N(CC=C)CC(=O)N(CCOC)CC(=O)N(CC=C)CC(=O)NCC(=O)NC(CCCCN)C(=O)NC(CCSC)C(=O)NCCCCC(NC(=O)C(CCSC)NC(=O)C(CCCCN)NC(=O)CNC(=O)CN(CC=C)C(=O)CN(CCOC)C(=O)CN(CC=C)C(=O)CN(CCOC)C(=O)CNCC=C)C(N)=O (centres undefined) (I: H-[NAllylGly][Nme][NAllylGly][Nme][NAllylGly]GKMK-NH2 / II: H-[NAllylGly][Nme][NAllylGly][Nme][NAllylGly]GKM; amide I:9-II:C; configuration not given here) was tested. Which Activity did it give?
The Activity was “inactive”.

For COc1ccc(CN(CC(=O)NC(CCCCNC(=O)C(CCCCN)NC(=O)C(CCCCN)NC(=O)CN)C(=O)NCCCCC(NC(=O)CN(Cc2ccc(OC)cc2)C(=O)CN(C(=O)CN(Cc2ccc3c(c2)OCO3)C(=O)CN[C@H](C)c2ccccc2)[C@H](C)c2ccccc2)C(=O)NC(CCCCN)C(=O)NC(CCCCN)C(=O)NC(CCSC)C(N)=O)C(=O)CN(C(=O)CN(Cc2ccc3c(c2)OCO3)C(=O)CN[C@H](C)c2ccccc2)[C@H](C)c2ccccc2)cc1 (some centres undefined) (I: H-[Nrpe][Gly(N-piperonyl)][Nrpe][N(4-MeOBn)Gly][ξK][ξK][ξK][ξM]-NH2 / II: H-[Nrpe][Gly(N-piperonyl)][Nrpe][N(4-MeOBn)Gly][ξK]([ξK-ξK-Gly]); amide I:5-II:C), which Activity is on record?
The Activity was “Active”.

With COc1ccc(CN(CC(=O)NC(CCCCNC(=O)C(CCCCN)NC(=O)C(CCCCN)NC(=O)CN)C(=O)NCCC(=O)NCCCCC(NC(=O)CN(Cc2ccc(OC)cc2)C(=O)CN(C(=O)CN(Cc2ccc3c(c2)OCO3)C(=O)CN[C@H](C)c2ccccc2)[C@H](C)c2ccccc2)C(=O)NC(CCCCN)C(=O)NC(CCCCN)C(=O)NC(CCSC)C(N)=O)C(=O)CN(C(=O)CN(Cc2ccc3c(c2)OCO3)C(=O)CN[C@H](C)c2ccccc2)[C@H](C)c2ccccc2)cc1 (some centres undefined) (I: H-[Nrpe][Gly(N-piperonyl)][Nrpe][N(4-MeOBn)Gly][ξK][ξK][ξK][ξM]-NH2 / II: H-[Nrpe][Gly(N-piperonyl)][Nrpe][N(4-MeOBn)Gly][ξK]([ξK-ξK-Gly])[βAla]; amide I:5-II:C) as the compound, how does the Activity read?
Its Activity is “Active”.

How did the Activity turn out when COc1ccc(CN(CC(=O)NC(CCCCNC(=O)C(CCCCN)NC(=O)C(CCCCN)NC(=O)CN)C(=O)NCCOCCOCC(=O)NCCC(=O)NCCCCC(NC(=O)CN(Cc2ccc(OC)cc2)C(=O)CN(C(=O)CN(Cc2ccc3c(c2)OCO3)C(=O)CN[C@H](C)c2ccccc2)[C@H](C)c2ccccc2)C(=O)NC(CCCCN)C(=O)NC(CCCCN)C(=O)NC(CCSC)C(N)=O)C(=O)CN(C(=O)CN(Cc2ccc3c(c2)OCO3)C(=O)CN[C@H](C)c2ccccc2)[C@H](C)c2ccccc2)cc1 (some centres undefined) (I: H-[Nrpe][Gly(N-piperonyl)][Nrpe][N(4-MeOBn)Gly][ξK][ξK][ξK][ξM]-NH2 / II: H-[Nrpe][Gly(N-piperonyl)][Nrpe][N(4-MeOBn)Gly][ξK]([ξK-ξK-Gly])[AEEA][βAla]; amide I:5-II:C) was run?
Its Activity is “Active”.

COc1ccc(CN(CC(=O)NC(CCCCNC(=O)C(CCCCNC(=O)C(CCCCN)NC(=O)C(CCCCN)NC(=O)C(CCSC)NC(=O)CN)NC(=O)CN(Cc2ccc(OC)cc2)C(=O)CN(C(=O)CN(Cc2ccc3c(c2)OCO3)C(=O)CN[C@H](C)c2ccccc2)[C@H](C)c2ccccc2)C(=O)NCCCCC(NC(=O)CN(Cc2ccc(OC)cc2)C(=O)CN(C(=O)CN(Cc2ccc3c(c2)OCO3)C(=O)CN[C@H](C)c2ccccc2)[C@H](C)c2ccccc2)C(=O)NC(CCCCN)C(=O)NC(CCCCN)C(=O)NC(CCSC)C(N)=O)C(=O)CN(C(=O)CN(Cc2ccc3c(c2)OCO3)C(=O)CN[C@H](C)c2ccccc2)[C@H](C)c2ccccc2)cc1 (some centres undefined) (I: H-[Nrpe][Gly(N-piperonyl)][Nrpe][N(4-MeOBn)Gly][ξK][ξK][ξK][ξM]-NH2 / II: H-[Nrpe][Gly(N-piperonyl)][Nrpe][N(4-MeOBn)Gly][ξK]([ξK-ξK-ξM-Gly]) / III: H-[Nrpe][Gly(N-piperonyl)][Nrpe][N(4-MeOBn)Gly][ξK]; amide I:5-III:C, II:C-III:5) was tested. Which Activity did it give?
Its Activity is “Active”.

Which Activity does the source give for COc1ccc(CN(CC(=O)N(CCCCN)CC(=O)NC(CCCCN)C(=O)NC(CCCCN)C(=O)NC(CCSC)C(=O)NCCCCC(NC(=O)C(CCSC)NC(=O)C(CCCCN)NC(=O)C(CCCCN)NC(=O)CN(CCCCN)C(=O)CN(Cc2ccc(OC)cc2)C(=O)CN(C(=O)CN(Cc2ccc3c(c2)OCO3)C(=O)CN[C@H](C)c2ccccc2)[C@H](C)c2ccccc2)C(N)=O)C(=O)CN(C(=O)CN(Cc2ccc3c(c2)OCO3)C(=O)CN[C@H](C)c2ccccc2)[C@H](C)c2ccccc2)cc1 (some centres undefined) (I: H-[Nrpe][Gly(N-piperonyl)][Nrpe][N(4-MeOBn)Gly][Nlys][ξK][ξK][ξM][ξK]-NH2 / II: H-[Nrpe][Gly(N-piperonyl)][Nrpe][N(4-MeOBn)Gly][Nlys][ξK][ξK][ξM]; amide I:9-II:C) here?
The Activity was “Active”.
